Source: patent US20120283293A1, “Methods of neuroprotection involving Prostaglandin E2 EP4 (PGE2 EP4) receptor activation” (The Board of Trustees of the Leland Stanford Junior …, priority 2011, published 2012)

Legend:
[1] = test system: NF-κB subunits p65 and p50 in BV-2 cells; experiment: NF-κB p65/p50 nuclear translocation in LPS-stimulated BV-2 cells (Western, immunofluorescence); type: cell-based, murine
Procedure: Nuclear and cytoplasmic fractions of BV-2 cells were prepared at several time points after treatment (0-120 minutes) using the nuclear extract kit from Active Motif (Carlsbad, Calif.). Briefly, cells were washed, collected in ice-cold PBS in the presence of phosphatase inhibitors, and centrifuged at 300×g for 5 min at 4° C. Cell pellets were resuspended in hypotonic buffer, treated with detergent, and centrifuged at 14,000×g for 30 sec at 4° C. After collection of the cytoplasmic fraction, nuclei were solubilized for 30 min in lysis buffer containing protease inhibitors. Lysates were centrifuged at 14,000×g for 30 min at 4° C. and supernatants were collected for NF-κB studies. To prepare whole cell lysates for phospho-Akt and phospho-IKK studies, cells were washed in ice-cold PBS and lysed in 20 mM Tris-HCl, pH 7.5, 150 mM NaCl, 1 mM Na2EDTA, 1 mM EGTA, 1% Triton, 2.5 mM sodium pyrophosphate, 1 mM β-glycerophosphate, 1 mM orthovanadate, 1 μg/ml leupeptin and 1 mM PMSF. Lysates were sonicated for 5 seconds, centrifuged at 14,000×g for 10 min at 4° C. and supernatants were collected for phospho-Akt and phospho-IKK studies. All protein concentrations were determined using the Bradford protein assay.
Western blot analysis. Protein (20 μg per lane) was fractionated using 12% SDS-PAGE and electrophoretically transferred to PVDF membranes (Bio-Rad, Hercules, Calif.). For phospho-Akt/Akt and phospho-IKK/IKK studies, membranes were probed with anti phospho-Ser473 Akt antibody or anti-phospho-IKK antibody (1:1000, Cell signaling, Beverly, Mass.) and anti-Akt and anti-IKK antibodies (1:1000; Cell Signaling). For NF-κB nuclear translocation studies, membranes were probed with anti-NF-κB p105/p50 antibody (1:5000, Abcom, Cambridge, Mass.) or anti-NF-κB p65 antibody (1:300, Santa Cruz Biotechnology). Loading controls included anti-actin antibody (1:10,000, Santa Cruz Biotechnology, Inc. Santa Cruz, Calif.) for cytosolic fractions and anti-lamin B1 antibody (1:10,000, Abcom, Cambridge, Mass.) for nuclear fractions. Immunoreactivity was detected using either sheep anti-rabbit or sheep anti-mouse HRP-conjugated secondary antibody (Amersham Biosciences, Arlington Heights, Ill.), followed by enhanced chemiluminescence (Pierce). Autoradiographic signals were quantified using NIH Image. Experiments were repeated in triplicate.
BV-2 cells were seeded on poly-L-Lysine coated glass coverslips and were maintained in culture for at least 24 hours before treatment with LPS+/−AE1-329. After one hour of treatment, cells were fixed with 4% paraformaldehyde and processed for immunocytochemistry using established protocols. NF-κB cellular localization was detected using rabbit anti-NF-κB p65 antibody (1:200, Santa Cruz Biotechnology) and Cy3-conjugated donkey anti-rabbit secondary antibody (Jackson ImmunoResearch Laboratories, West Grove, Pa.). Nuclei were visualized using Hoechst 33258 dye (MP Biomedicals, Solon, Ohio). Images were acquired using a Nikon Eclipse E600 microscope (Nikon Instruments, Melville, N.Y.) and a Hamamatsu Orca-ER digital camera (Hamamatsu Photonics, Bridgewater, N.J.). For quantification of nuclear NF-κB p65 levels, images were analyzed using the measurements module of Volocity 4.3.2 image analysis software (Improvision Inc., Waltham, Mass.). […] For data quantification, each data point represented the average NF-κB p65 signal from the nuclei in one field of view (>100 cells). […]

[2] = test system: PKA activity in BV-2 cells; experiment: cAMP dependent protein kinase A (PKA) activity assay in BV-2 cells; type: cell-based, murine; details: AE1-329 100 nM alone or with LPS 100 ng/ml
Procedure: PKA activity was determined using the PKA kinase activity assay kit (Assay designs, Ann Arbor, Mich.). Cells were harvested 3 minutes after stimulation, and ELISA was carried out according to the manufacturer's instructions. Kinase activity was calculated as (sample absorbance—blank absorbance)/μg protein and normalized to the average value of vehicle.
Downstream signaling events for EP4, a […] receptor, were investigated in LPS treated BV-2 cells (see FIG. 3). […] The increase in PKA activity from EP4 receptor signaling was blocked with the PKA inhibitor H89 at doses of 5 μM and 10 μM (FIG. 3B).

With `COCc1ccccc1CC[C@H](O)/C=C/[C@H]1[C@H](O)CC(=O)[C@@H]1SCCCSCC(=O)O` [AE1-329] the “nuclear p65 immunofluorescent signal” value ([1]; BV-2 cells, 60 minutes after LPS 100 ng/ml, AE1-329 100 nM) was “significantly attenuated”, the “LPS-induced nuclear translocation of NF-κB subunits p65 and p50 (Western)” value ([1]; BV-2 cells, LPS 100 ng/ml, AE1-329 100 nM, vs vehicle) was “reduced levels of NF-κB nuclear translocation” and the “time of maximal attenuation of nuclear translocation, NF-κB p65” value ([1]; BV-2 cells, LPS + AE1-329) was 60 min. The “time of maximal attenuation of nuclear translocation, p50” value ([1]; BV-2 cells, LPS + AE1-329) was 120 min, the “cytoplasmic levels of p65 and p50” value ([1]; LPS-treated BV-2 cells, AE1-329 vs vehicle) was “increased” and the PKA activity [2] was “significantly increased”.
